{
  "source": "patent US20090162413A1",
  "about": "(priority 1998, published 2009)",
  "key": {"[1]": {"test": "release of zotarolimus from 15 mm BiodivYsio drug delivery stents (Example 5)", "type": "physicochemical", "conditions": "15 mm BiodivYsio stents", "description": "To load the stents with drug, a solution of zotarolimus in ethanol at a concentration of 50 mg/ml was prepared and dispensed into twelve vials. Twelve individual polymer-coated stents were placed on fixtures designed to hold the stent in a vertical position and the stents were immersed vertically in the drug solution for five minutes. The stents and fixtures were removed from the vials and excess drug solution was blotted away by contacting the stents with an absorbent material. The stents were then allowed to dry in air for 30 minutes in an inverted vertical position.\nThe stents were removed from the fixtures, and each stent was placed into 50/50 acetonitrile/phosphate buffer (pH 5.1, 2.0 ml) and sonicated for one hour. The stents were removed from the solution and solutions were assayed for concentration of drug, which allowed calculation of the amount of drug originally on the stents. This method was independently shown to remove at least 95% of the drug from the stent coating. On average, the stents included 120±9 micrograms of drug.\nThe drug-loaded stents were placed on the fixtures and placed into 0.01 M phosphate buffer (pH=6.0, 1.9 ml) in individual vials. These samples were placed onto a Eberbach shaker set at low speed to provide back-and-forth agitation. To avoid approaching drug saturation in the buffer, the stents were transferred periodically to fresh buffer vials at the following points: 15, 30, 45, 60, 120, 135, 150, 165, 180, 240, 390 minutes. The dissolution buffer vials were assayed by HPLC for the drug concentration at the end of the drug release period studied. The data, represented as % cumulative release of the drug as a function of time, is shown in tabular form below (Table 7): […]"}, "[2]": {"tested_on": "human coronary artery smooth muscle cells (hCaSMC)", "test": "3H-thymidine uptake proliferation assay, hCaSMC", "type": "cell-based", "conditions": "Homo sapiens; read-out: hCaSMC IC50 Mean ± SEM", "description": "Experiments were performed to investigate interactions between zotarolimus (ABT-578) and paclitaxel when administered in combination. The effects of paclitaxel and zotarolimus on the anti-proliferative activity of human coronary artery smooth muscle ([…]) and endothelial […] determined using an in vitro proliferation assay. The proliferation and migration of vascular smooth muscle cells into the vascular neointima is a characteristic pathologic response seen in restenotic lesions (Lafont and Libby, 1998). As a result, in vitro assays which specifically measure the anti-proliferative activity of candidate anti-restenotic compounds on human coronary artery smooth muscle and endothelial cells predict potential anti-restenotic activity in vivo. Compounds or combinations of compounds which attenuate growth factor-mediated human coronary artery smooth muscle cell ([…]) proliferation, as measured by the tritium incorporation assay in vitro, are candidate anti-restenotic agents. The tritium incorporation assay is an accurate and sensitive method to determine cell number and proliferation. […] The attenuation of zotarolimus's anti-proliferative activity by tacrolimus is a clear example of this effect (FIG. 10A). To determine the potential anti-restenotic activity of combinations of zotarolimus and paclitaxel, the proliferation of […] was measured in the presence of each compound and in combination. To determine if paclitaxel attenuated or augmented the activity of zotarolimus the effect of paclitaxel and zotarolimus alone and in combination on growth-factor induced proliferation was determined. Data were analyzed for additivity using an isobologram approach and a combination index analysis. An isobologram is a Cartesian plot of pairs of doses that, in combination, yield a specified level of effect. It is a convenient way of graphically displaying results of drug-combination and similar studies, because paired values of experimental points that fall below or above the line connecting the axial points indicate synergistic and non-synergistic interactions, respectively. Cell proliferation was monitored by following incorporation of ^3H-thymidine into newly synthesized DNA of cells stimulated by serum and growth factors. Exponentially growing […] were seeded into 96-well flat bottom tissue culture plates at 5,000 cells/well (10,000 cells/well for […]). The cells were allowed to attach overnight. The growth medium was removed the following day, and cells were washed twice with un-supplemented (basal) medium to remove traces of serum and growth factors. […] PerkinElmer; Wellesley; MA) was added to each filter well and the plates were counted using a TopCount microplate scintillation counter (PerkinElmer). […]"}},
  "data": [
    {"molecule": "CO[C@H]1C[C@@H]2CC[C@@H](C)[C@@](O)(O2)C(=O)C(=O)N2CCCC[C@H]2C(=O)O[C@H]([C@H](C)C[C@@H]2CC[C@H](n3cnnn3)[C@H](OC)C2)CC(=O)[C@H](C)/C=C(\\C)[C@@H](O)[C@@H](OC)C(=O)[C@H](C)C[C@H](C)/C=C/C=C/C=C/1C", "note": "[zotarolimus]", "values": [
      {"measurement": "% Cumulative Release of Drug", "setting": "[1]; 0.01 M phosphate buffer pH 6.0, 15 min", "value": 0.3, "unit": "%"},
      {"measurement": "% Cumulative Release of Drug", "setting": "[1]; 0.01 M phosphate buffer pH 6.0, 30 min", "value": 1.1, "unit": "%"},
      {"measurement": "% Cumulative Release of Drug", "setting": "[1]; 0.01 M phosphate buffer pH 6.0, 45 min", "value": 2.1, "unit": "%"},
      {"measurement": "% Cumulative Release of Drug", "setting": "[1]; 0.01 M phosphate buffer pH 6.0, 60 min", "value": 3.2, "unit": "%"},
      {"measurement": "% Cumulative Release of Drug", "setting": "[1]; 0.01 M phosphate buffer pH 6.0, 120 min", "value": 4.3, "unit": "%"},
      {"measurement": "% Cumulative Release of Drug", "setting": "[1]; 0.01 M phosphate buffer pH 6.0, 135 min", "value": 5.9, "unit": "%"},
      {"measurement": "% Cumulative Release of Drug", "setting": "[1]; 0.01 M phosphate buffer pH 6.0, 150 min", "value": 6.3, "unit": "%"},
      {"measurement": "% Cumulative Release of Drug", "setting": "[1]; 0.01 M phosphate buffer pH 6.0, 165 min", "value": 6.8, "unit": "%"},
      {"measurement": "% Cumulative Release of Drug", "setting": "[1]; 0.01 M phosphate buffer pH 6.0, 180 min", "value": 7.4, "unit": "%"},
      {"measurement": "% Cumulative Release of Drug", "setting": "[1]; 0.01 M phosphate buffer pH 6.0, 240 min", "value": 10.8, "unit": "%"},
      {"measurement": "% Cumulative Release of Drug", "setting": "[1]; 0.01 M phosphate buffer pH 6.0, 390 min", "value": 13.2, "unit": "%"},
      {"measurement": "IC50", "setting": "[2]", "value": "4.2 ± 1.7", "unit": "nM"}
    ]}
  ]
}
